Data taken from PubChem BioAssay (NCI).
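The compound was tested at five concentrations on cells cultured in 96-well plates, with a 48-hour exposure period. GI50 is the concentration that inhibits growth by half. Definition used: TGI = concentration required for complete inhibition of growth.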

What was measured:
Test in all cases: DTP human tumour cell line panel, 48 h
COLO 205 colon = test system: COLO 205 colon
SK-MEL-28 melanoma = test system: SK-MEL-28 melanoma
RXF 393 renal = test system: RXF 393 renal
SK-OV-3 ovarian = test system: SK-OV-3 ovarian
K-562 leukemia = test system: K-562 leukemia
CCRF-CEM leukemia = test system: CCRF-CEM leukemia
HCT-116 colon = test system: HCT-116 colon
HT29 colon = test system: HT29 colon
M14 melanoma = test system: M14 melanoma
NCI-H522 lung = test system: NCI-H522 lung
SF-268 CNS = test system: SF-268 CNS
MDA-MB-435 = test system: MDA-MB-435
CAKI-1 renal = test system: CAKI-1 renal
A549 NSCLC = test system: A549 NSCLC
UACC-62 melanoma = test system: UACC-62 melanoma
EKVX NSCLC = test system: EKVX NSCLC
NCI-H23 lung = test system: NCI-H23 lung
T-47D breast = test system: T-47D breast
OVCAR-8 ovarian = test system: OVCAR-8 ovarian
SN12C renal = test system: SN12C renal
BT-549 breast = test system: BT-549 breast
KM12 colon = test system: KM12 colon
HCC-2998 colon = test system: HCC-2998 colon
MDA-MB-231 breast = test system: MDA-MB-231 breast
SF-539 CNS = test system: SF-539 CNS
ACHN renal = test system: ACHN renal
RPMI-8226 leukemia = test system: RPMI-8226 leukemia
786-0 renal = test system: 786-0 renal
U251 CNS = test system: U251 CNS
OVCAR-5 ovarian = test system: OVCAR-5 ovarian
SK-MEL-5 melanoma = test system: SK-MEL-5 melanoma
HOP-92 NSCLC = test system: HOP-92 NSCLC
HCT-15 colon = test system: HCT-15 colon
MALME-3M melanoma = test system: MALME-3M melanoma
SK-MEL-2 melanoma = test system: SK-MEL-2 melanoma
UACC-257 melanoma = test system: UACC-257 melanoma
NCI-H460 lung = test system: NCI-H460 lung
HL-60(TB) leukemia = test system: HL-60(TB) leukemia
TK-10 renal = test system: TK-10 renal
A498 renal = test system: A498 renal
OVCAR-4 ovarian = test system: OVCAR-4 ovarian
LOX IMVI melanoma = test system: LOX IMVI melanoma
HOP-62 NSCLC = test system: HOP-62 NSCLC
UO-31 renal = test system: UO-31 renal
MCF7 breast = test system: MCF7 breast
SNB-19 CNS = test system: SNB-19 CNS
NCI/ADR-RES ovarian = test system: NCI/ADR-RES ovarian
SF-295 CNS = test system: SF-295 CNS
SW-620 colon = test system: SW-620 colon
NCI-H226 lung = test system: NCI-H226 lung
IGROV1 ovarian = test system: IGROV1 ovarian
DU-145 prostate = test system: DU-145 prostate
PC-3 prostate = test system: PC-3 prostate
MOLT-4 leukemia = test system: MOLT-4 leukemia
HS 578T breast = test system: HS 578T breast

O=C(CCCCCCNC(=O)c1csc(Br)n1)NO
GI50 (COLO 205 colon): 700 nM
TGI (COLO 205 colon): 1780 nM
GI50 (SK-MEL-28 melanoma): 1290 nM
TGI (SK-MEL-28 melanoma): > 33300 nM
GI50 (RXF 393 renal): 929 nM
TGI (RXF 393 renal): 3110 nM
GI50 (SK-OV-3 ovarian): 1040 nM
TGI (SK-OV-3 ovarian): 5430 nM
GI50 (K-562 leukemia): 1130 nM
TGI (K-562 leukemia): > 33300 nM
GI50 (CCRF-CEM leukemia): 1060 nM
TGI (CCRF-CEM leukemia): > 33300 nM
GI50 (HCT-116 colon): 892 nM
TGI (HCT-116 colon): 3780 nM
GI50 (HT29 colon): 985 nM
TGI (HT29 colon): 5560 nM
GI50 (M14 melanoma): 1640 nM
TGI (M14 melanoma): > 33300 nM
GI50 (NCI-H522 lung): 844 nM
TGI (NCI-H522 lung): 5090 nM
GI50 (SF-268 CNS): 2430 nM
TGI (SF-268 CNS): > 33300 nM
GI50 (MDA-MB-435): 1050 nM
TGI (MDA-MB-435): 6300 nM
GI50 (CAKI-1 renal): 1120 nM
TGI (CAKI-1 renal): 8220 nM
GI50 (A549 NSCLC): 1350 nM
TGI (A549 NSCLC): 14400 nM
GI50 (UACC-62 melanoma): 699 nM
TGI (UACC-62 melanoma): 2500 nM
GI50 (EKVX NSCLC): 1990 nM
TGI (EKVX NSCLC): > 33300 nM
GI50 (NCI-H23 lung): 1900 nM
TGI (NCI-H23 lung): > 33300 nM
GI50 (T-47D breast): 648 nM
TGI (T-47D breast): 1830 nM
GI50 (OVCAR-8 ovarian): 961 nM
TGI (OVCAR-8 ovarian): 9580 nM
GI50 (SN12C renal): 2950 nM
TGI (SN12C renal): > 33300 nM
GI50 (BT-549 breast): 3050 nM
TGI (BT-549 breast): > 33300 nM
GI50 (KM12 colon): 2750 nM
TGI (KM12 colon): > 33300 nM
GI50 (HCC-2998 colon): 3400 nM
TGI (HCC-2998 colon): 13100 nM
GI50 (MDA-MB-231 breast): 2010 nM
TGI (MDA-MB-231 breast): > 33300 nM
GI50 (SF-539 CNS): 1620 nM
TGI (SF-539 CNS): > 33300 nM
GI50 (ACHN renal): 1180 nM
TGI (ACHN renal): 7530 nM
GI50 (RPMI-8226 leukemia): 951 nM
TGI (RPMI-8226 leukemia): 13400 nM
GI50 (786-0 renal): 2440 nM
TGI (786-0 renal): > 33300 nM
GI50 (U251 CNS): 1530 nM
TGI (U251 CNS): 7230 nM
GI50 (OVCAR-5 ovarian): 1160 nM
TGI (OVCAR-5 ovarian): > 33300 nM
GI50 (SK-MEL-5 melanoma): 1240 nM
TGI (SK-MEL-5 melanoma): 4900 nM
GI50 (HOP-92 NSCLC): 706 nM
TGI (HOP-92 NSCLC): 2240 nM
GI50 (HCT-15 colon): 2160 nM
TGI (HCT-15 colon): > 33300 nM
GI50 (MALME-3M melanoma): 787 nM
TGI (MALME-3M melanoma): > 33300 nM
GI50 (SK-MEL-2 melanoma): 1180 nM
TGI (SK-MEL-2 melanoma): 6730 nM
GI50 (UACC-257 melanoma): 853 nM
TGI (UACC-257 melanoma): 3330 nM
GI50 (NCI-H460 lung): 1250 nM
TGI (NCI-H460 lung): > 33300 nM
GI50 (HL-60(TB) leukemia): 1270 nM
TGI (HL-60(TB) leukemia): > 33300 nM
GI50 (TK-10 renal): 619 nM
TGI (TK-10 renal): 2550 nM
GI50 (A498 renal): 676 nM
TGI (A498 renal): 2080 nM
GI50 (OVCAR-4 ovarian): 3650 nM
TGI (OVCAR-4 ovarian): > 33300 nM
GI50 (LOX IMVI melanoma): 47.3 nM
TGI (LOX IMVI melanoma): 3790 nM
GI50 (HOP-62 NSCLC): 1410 nM
TGI (HOP-62 NSCLC): > 33300 nM
GI50 (UO-31 renal): 1120 nM
TGI (UO-31 renal): > 33300 nM
GI50 (MCF7 breast): 1410 nM
TGI (MCF7 breast): > 33300 nM
GI50 (SNB-19 CNS): 3200 nM
TGI (SNB-19 CNS): > 33300 nM
GI50 (NCI/ADR-RES ovarian): 694 nM
TGI (NCI/ADR-RES ovarian): 2500 nM
GI50 (SF-295 CNS): 1660 nM
TGI (SF-295 CNS): 9370 nM
GI50 (SW-620 colon): 637 nM
TGI (SW-620 colon): 1580 nM
GI50 (NCI-H226 lung): 5170 nM
TGI (NCI-H226 lung): > 33300 nM
GI50 (IGROV1 ovarian): 1690 nM
TGI (IGROV1 ovarian): > 33300 nM
GI50 (DU-145 prostate): 1210 nM
TGI (DU-145 prostate): > 33300 nM
GI50 (PC-3 prostate): 2430 nM
TGI (PC-3 prostate): > 33300 nM
GI50 (MOLT-4 leukemia): 1020 nM
TGI (MOLT-4 leukemia): > 33300 nM
GI50 (HS 578T breast): 917 nM
TGI (HS 578T breast): 22100 nM
